We go through 2 compounds from ChEMBL document CHEMBL5678818, “Discovery of potent SOS1 inhibitors that block RAS activation via disruption of the RAS-SOS1 interaction” (Proc Natl Acad Sci U S A, 2019).

Experiment [1] deals with Ribosomal protein S6 kinase alpha-3 (Homo sapiens) (UniProt P51812). Kind of experiment: Inhibition of C-terminal RSK2 kinetic domain 2 (unknown origin) assessed as residual activity at 1000 nM by KINOMEscan analysis relative to control.
Experiment [2] addresses T1, Activin receptor type-1B (Homo sapiens) (UniProt P36896).
T1 sequence (whole entry): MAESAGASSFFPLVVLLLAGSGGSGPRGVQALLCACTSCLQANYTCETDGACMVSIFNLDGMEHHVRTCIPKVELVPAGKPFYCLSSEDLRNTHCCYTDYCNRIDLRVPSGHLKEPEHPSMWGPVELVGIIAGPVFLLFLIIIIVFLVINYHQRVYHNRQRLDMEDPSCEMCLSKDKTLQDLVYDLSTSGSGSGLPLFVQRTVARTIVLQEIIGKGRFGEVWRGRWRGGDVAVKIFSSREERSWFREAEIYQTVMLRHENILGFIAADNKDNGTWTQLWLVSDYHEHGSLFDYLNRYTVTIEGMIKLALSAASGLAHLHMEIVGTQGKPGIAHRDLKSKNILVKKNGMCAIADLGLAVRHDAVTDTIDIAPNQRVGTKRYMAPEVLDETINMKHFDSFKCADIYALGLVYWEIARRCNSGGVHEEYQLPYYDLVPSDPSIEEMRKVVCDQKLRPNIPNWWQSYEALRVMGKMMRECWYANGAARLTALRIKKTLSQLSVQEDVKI
Kind of experiment: Inhibition of ACVR1B (unknown origin) assessed as residual activity at 1000 nM by KINOMEscan analysis relative to control.

Experiment [3] concerns the target Ribosomal protein S6 kinase alpha-5 (Homo sapiens) (UniProt O75582). Kind of experiment: Inhibition of N-terminal RPS6KA5 kinetic domain 1 (unknown origin) assessed as residual activity at 1000 nM by KINOMEscan analysis relative to control.
The target in experiment [4] is Serine/threonine-protein kinase SIK2 (Homo sapiens) (UniProt Q9H0K1). The experiment is described as follows: Inhibition of SIK2 (unknown origin) assessed as residual activity at 1000 nM by KINOMEscan analysis relative to control.
The target of experiment [5] is Tyrosine-protein kinase JAK1 (Homo sapiens) (UniProt P23458). Kind of experiment: Inhibition of JAK1 JH1 catalytic domain (unknown origin) assessed as residual activity at 1000 nM by KINOMEscan analysis relative to control.
Experiment [6] has as its system Phosphatidylinositol 4,5-bisphosphate 3-kinase catalytic subunit alpha isoform (Homo sapiens), P42336 [C420R]. The experiment is described as follows: Inhibition of PIK3CA C420R mutant (unknown origin) assessed as residual activity at 1000 nM by KINOMEscan analysis relative to control.
Experiment [7] addresses Dual specificity mitogen-activated protein kinase kinase 2 (Homo sapiens) (UniProt P36507). Kind of experiment: Inhibition of MEK2 (unknown origin) assessed as residual activity at 1000 nM by KINOMEscan analysis relative to control.
For experiment [8], the target named is Microtubule-associated serine/threonine-protein kinase 1 (Homo sapiens) (UniProt Q9Y2H9). Kind of experiment: Inhibition of MAST1 (unknown origin) assessed as residual activity at 1000 nM by KINOMEscan analysis relative to control.
Experiment [9] has as its target Serine/threonine-protein kinase Chk2 (Homo sapiens) (UniProt O96017). The experiment is described as follows: Inhibition of CHEK2 (unknown origin) assessed as residual activity at 1000 nM by KINOMEscan analysis relative to control.
Experiment [10] addresses Tyrosine-protein kinase JAK2 (Homo sapiens) (UniProt O60674). The experiment is described as follows: Inhibition of JAK2 JH1 catalytic domain (unknown origin) assessed as residual activity at 1000 nM by KINOMEscan analysis relative to control.
The target of experiment [11] is T2, Mitogen-activated protein kinase kinase kinase kinase 3 (Homo sapiens) (UniProt Q8IVH8).
T2 sequence (whole entry): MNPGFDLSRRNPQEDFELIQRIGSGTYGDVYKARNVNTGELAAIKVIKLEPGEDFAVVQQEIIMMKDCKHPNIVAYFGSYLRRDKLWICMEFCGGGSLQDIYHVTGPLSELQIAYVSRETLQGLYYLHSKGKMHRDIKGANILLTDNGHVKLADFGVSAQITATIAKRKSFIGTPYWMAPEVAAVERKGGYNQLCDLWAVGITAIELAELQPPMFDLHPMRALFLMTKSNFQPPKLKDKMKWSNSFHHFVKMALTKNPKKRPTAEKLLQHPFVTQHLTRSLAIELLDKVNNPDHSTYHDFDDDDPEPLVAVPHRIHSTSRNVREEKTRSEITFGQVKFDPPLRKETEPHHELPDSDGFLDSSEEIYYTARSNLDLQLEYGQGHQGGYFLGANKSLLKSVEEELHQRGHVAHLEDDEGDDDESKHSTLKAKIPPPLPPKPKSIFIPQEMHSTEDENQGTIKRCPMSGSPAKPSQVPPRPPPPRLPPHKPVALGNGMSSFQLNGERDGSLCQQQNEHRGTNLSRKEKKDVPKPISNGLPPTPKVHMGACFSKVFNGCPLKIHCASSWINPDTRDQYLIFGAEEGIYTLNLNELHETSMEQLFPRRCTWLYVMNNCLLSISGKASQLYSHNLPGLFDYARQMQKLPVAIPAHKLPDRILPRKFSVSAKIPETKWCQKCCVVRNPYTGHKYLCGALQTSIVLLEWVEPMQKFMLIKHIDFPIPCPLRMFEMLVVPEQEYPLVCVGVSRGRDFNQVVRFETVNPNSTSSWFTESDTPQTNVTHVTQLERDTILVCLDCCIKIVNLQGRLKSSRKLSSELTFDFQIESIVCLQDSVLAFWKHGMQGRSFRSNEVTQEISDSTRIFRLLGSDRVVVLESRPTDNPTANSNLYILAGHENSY
The experiment is described as follows: Inhibition of MAP4K3 (unknown origin) assessed as residual activity at 1000 nM by KINOMEscan analysis relative to control.

Experiment [12] concerns the target Tyrosine-protein kinase Lck (Homo sapiens) (UniProt P06239). Kind of experiment: Inhibition of LCK (unknown origin) assessed as residual activity at 1000 nM by KINOMEscan analysis relative to control.
The target in experiment [13] is CDK4/Cyclin D3 (Homo sapiens) (UniProt P11802+P30281). The experiment is described as follows: Inhibition of CDK4-cyclin D3 (unknown origin) assessed as residual activity at 1000 nM by KINOMEscan analysis relative to control. The format is protein-complex assay.
Experiment [14] deals with Tyrosine-protein kinase receptor UFO (Homo sapiens) (UniProt P30530). The experiment is described as follows: Inhibition of AXL (unknown origin) assessed as residual activity at 1000 nM by KINOMEscan analysis relative to control.
Experiment [15] addresses Serine/threonine-protein kinase PAK 6 (Homo sapiens) (UniProt Q9NQU5). The experiment is described as follows: Inhibition of PAK6 (unknown origin) assessed as residual activity at 1000 nM by KINOMEscan analysis relative to control.
The test system of experiment [16] is Proto-oncogene tyrosine-protein kinase receptor Ret (Homo sapiens), P07949 [V804L]. The experiment is described as follows: Inhibition of RET V804L mutant (unknown origin) assessed as residual activity at 1000 nM by KINOMEscan analysis relative to control.
Proto-oncogene tyrosine-protein kinase receptor Ret (Homo sapiens), P07949 [V804L], sequence (P07949 whole entry V804L): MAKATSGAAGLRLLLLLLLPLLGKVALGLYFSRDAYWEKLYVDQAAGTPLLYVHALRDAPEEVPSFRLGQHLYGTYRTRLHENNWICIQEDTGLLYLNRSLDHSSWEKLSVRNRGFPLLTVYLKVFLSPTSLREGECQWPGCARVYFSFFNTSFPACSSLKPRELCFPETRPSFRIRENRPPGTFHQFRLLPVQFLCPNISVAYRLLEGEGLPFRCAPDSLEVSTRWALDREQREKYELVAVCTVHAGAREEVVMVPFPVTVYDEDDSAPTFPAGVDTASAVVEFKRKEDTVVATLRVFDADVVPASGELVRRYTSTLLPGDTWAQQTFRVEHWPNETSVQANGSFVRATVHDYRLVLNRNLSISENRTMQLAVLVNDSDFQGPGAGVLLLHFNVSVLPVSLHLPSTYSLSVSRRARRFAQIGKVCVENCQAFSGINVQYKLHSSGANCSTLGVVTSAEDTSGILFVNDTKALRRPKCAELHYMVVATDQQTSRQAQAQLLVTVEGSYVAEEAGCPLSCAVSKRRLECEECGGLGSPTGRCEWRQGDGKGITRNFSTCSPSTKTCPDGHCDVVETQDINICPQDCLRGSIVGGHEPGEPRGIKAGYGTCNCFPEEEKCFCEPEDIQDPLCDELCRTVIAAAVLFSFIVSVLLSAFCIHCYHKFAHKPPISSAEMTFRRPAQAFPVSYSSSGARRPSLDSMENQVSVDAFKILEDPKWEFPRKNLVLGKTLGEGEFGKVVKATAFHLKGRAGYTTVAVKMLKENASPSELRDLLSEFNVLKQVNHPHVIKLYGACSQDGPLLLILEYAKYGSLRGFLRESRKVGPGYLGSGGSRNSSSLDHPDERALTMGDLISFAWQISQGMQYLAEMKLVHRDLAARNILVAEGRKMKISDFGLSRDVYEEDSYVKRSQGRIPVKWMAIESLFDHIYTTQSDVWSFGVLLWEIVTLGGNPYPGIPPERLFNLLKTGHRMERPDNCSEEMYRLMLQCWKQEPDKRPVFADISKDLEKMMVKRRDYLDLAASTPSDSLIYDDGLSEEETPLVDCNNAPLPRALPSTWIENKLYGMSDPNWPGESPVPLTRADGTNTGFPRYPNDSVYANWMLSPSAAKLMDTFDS

Tyrosine-protein kinase JAK2 (Homo sapiens), sequence (O60674 whole entry, the tested form may be a part): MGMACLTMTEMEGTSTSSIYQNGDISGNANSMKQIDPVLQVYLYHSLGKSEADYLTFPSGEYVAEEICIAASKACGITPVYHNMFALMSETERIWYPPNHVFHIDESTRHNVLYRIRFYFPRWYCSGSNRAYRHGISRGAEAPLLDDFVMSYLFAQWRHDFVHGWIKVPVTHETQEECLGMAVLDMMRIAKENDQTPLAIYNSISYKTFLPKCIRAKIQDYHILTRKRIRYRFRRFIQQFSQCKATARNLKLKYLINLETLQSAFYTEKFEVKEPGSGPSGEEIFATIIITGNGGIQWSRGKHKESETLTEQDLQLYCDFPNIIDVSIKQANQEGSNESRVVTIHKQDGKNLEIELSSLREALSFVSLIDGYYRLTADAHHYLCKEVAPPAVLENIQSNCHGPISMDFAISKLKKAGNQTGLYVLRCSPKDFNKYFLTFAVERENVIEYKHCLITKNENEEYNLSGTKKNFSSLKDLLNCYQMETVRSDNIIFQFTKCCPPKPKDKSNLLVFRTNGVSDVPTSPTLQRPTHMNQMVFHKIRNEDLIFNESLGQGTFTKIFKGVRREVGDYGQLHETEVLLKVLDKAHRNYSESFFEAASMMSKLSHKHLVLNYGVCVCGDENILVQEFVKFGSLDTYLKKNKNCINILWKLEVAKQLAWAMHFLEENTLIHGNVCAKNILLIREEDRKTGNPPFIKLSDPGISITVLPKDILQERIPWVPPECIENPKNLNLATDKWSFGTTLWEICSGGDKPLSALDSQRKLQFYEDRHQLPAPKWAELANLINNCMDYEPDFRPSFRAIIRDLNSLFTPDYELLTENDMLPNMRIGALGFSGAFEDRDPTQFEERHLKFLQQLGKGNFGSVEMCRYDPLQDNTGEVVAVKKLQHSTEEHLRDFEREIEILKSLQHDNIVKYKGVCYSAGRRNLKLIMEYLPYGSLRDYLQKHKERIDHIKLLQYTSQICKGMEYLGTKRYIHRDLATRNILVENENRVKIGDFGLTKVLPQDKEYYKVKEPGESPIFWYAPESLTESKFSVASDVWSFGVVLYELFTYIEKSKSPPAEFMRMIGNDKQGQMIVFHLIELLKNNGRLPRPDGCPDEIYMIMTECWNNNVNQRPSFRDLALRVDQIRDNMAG
Ribosomal protein S6 kinase alpha-5 (Homo sapiens), sequence (O75582 whole entry, looked up, the tested form may be a part): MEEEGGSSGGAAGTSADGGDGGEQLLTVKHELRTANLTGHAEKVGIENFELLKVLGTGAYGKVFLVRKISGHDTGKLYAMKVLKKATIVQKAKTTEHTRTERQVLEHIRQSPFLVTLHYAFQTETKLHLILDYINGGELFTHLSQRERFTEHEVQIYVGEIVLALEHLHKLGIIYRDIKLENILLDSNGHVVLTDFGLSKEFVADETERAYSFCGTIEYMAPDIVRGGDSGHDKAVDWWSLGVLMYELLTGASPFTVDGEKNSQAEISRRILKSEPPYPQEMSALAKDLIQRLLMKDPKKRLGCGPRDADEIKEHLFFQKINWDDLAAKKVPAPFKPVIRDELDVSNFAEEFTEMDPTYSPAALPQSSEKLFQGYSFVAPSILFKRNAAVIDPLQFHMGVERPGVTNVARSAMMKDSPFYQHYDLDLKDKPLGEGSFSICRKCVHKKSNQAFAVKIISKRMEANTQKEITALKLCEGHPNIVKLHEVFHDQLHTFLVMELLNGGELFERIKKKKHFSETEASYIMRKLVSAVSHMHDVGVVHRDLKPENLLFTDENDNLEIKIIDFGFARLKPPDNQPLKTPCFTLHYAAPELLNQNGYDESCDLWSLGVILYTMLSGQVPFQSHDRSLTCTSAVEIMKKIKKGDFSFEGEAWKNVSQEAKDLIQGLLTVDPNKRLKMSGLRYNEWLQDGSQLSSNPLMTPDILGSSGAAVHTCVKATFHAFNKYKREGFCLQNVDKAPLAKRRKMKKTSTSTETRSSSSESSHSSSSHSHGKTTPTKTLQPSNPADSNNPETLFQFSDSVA
Serine/threonine-protein kinase PAK 6 (Homo sapiens), sequence (Q9NQU5 whole entry, looked up): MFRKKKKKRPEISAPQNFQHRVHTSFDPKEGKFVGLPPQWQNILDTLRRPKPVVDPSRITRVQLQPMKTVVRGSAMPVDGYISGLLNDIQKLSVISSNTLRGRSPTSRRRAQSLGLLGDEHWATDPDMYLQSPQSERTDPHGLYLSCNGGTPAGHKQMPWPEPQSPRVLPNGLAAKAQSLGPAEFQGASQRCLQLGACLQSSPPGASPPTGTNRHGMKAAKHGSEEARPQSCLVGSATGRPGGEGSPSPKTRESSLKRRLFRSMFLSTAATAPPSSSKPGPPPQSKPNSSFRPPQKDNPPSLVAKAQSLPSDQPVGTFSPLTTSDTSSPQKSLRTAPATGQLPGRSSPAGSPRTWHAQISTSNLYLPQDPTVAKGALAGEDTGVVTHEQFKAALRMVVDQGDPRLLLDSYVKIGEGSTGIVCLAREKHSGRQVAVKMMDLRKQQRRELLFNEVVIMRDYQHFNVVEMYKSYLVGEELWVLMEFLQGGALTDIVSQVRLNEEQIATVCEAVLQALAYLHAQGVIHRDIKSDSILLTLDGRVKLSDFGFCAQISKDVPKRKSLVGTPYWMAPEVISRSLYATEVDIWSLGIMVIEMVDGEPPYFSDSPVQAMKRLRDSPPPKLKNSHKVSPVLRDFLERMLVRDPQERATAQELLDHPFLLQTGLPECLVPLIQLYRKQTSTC
Tyrosine-protein kinase JAK1 (Homo sapiens), sequence (P23458 whole entry, the tested form may be a part, canonical isoform): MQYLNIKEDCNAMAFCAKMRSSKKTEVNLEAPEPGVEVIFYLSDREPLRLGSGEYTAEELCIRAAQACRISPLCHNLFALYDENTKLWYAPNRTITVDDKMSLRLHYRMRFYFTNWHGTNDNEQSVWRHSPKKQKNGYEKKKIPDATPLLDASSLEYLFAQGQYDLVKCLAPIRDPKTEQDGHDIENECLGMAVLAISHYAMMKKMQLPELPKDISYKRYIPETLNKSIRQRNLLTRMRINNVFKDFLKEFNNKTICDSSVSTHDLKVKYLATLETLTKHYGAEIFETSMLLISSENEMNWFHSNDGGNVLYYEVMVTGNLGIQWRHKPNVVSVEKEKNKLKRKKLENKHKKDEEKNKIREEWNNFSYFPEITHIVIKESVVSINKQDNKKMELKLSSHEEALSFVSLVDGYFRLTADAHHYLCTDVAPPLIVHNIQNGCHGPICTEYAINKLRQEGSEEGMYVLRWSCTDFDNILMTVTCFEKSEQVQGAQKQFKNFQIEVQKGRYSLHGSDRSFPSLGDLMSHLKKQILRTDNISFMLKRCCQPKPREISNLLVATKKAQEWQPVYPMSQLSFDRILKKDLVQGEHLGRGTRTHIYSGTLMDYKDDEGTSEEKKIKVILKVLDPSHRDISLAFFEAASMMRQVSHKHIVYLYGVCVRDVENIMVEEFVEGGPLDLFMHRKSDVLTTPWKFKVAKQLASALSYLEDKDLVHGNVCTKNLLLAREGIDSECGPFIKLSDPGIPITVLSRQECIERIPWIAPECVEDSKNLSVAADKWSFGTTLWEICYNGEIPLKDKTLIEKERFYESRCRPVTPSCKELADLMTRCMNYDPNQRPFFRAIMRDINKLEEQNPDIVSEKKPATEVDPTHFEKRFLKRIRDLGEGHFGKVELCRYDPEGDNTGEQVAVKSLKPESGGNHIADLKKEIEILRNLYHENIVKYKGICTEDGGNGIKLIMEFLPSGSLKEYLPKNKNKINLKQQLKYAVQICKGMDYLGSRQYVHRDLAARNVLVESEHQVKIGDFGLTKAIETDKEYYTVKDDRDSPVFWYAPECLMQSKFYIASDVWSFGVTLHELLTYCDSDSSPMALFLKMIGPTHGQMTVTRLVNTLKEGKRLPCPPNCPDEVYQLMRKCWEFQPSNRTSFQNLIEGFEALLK

Regarding `COc1cc2nc(C)nc(N[C@H](C)c3cccc(-c4cn[nH]c4)c3)c2cc1OC`, the Activity in experiment [1] was 100%; in experiment [2] it was 100%; in experiment [3], 92%; in [4], 89%; in experiment [5], 100%; in experiment [6] it was 82%. The Activity in experiment [7] was 63%; in [8], 64%; in experiment [9], 89%; in [10], 74%; in [11] it was 90%; in experiment [12] it was 56%. The Activity came to 100% in experiment [13], 93% in [14], 88% in experiment [15] and 65% in experiment [16].

Take `COc1cc2ncnc(N[C@H](C)c3cccc4ccccc34)c2cc1OC`: the Activity in [1] was determined as 100%; in experiment [2], 100%; in [3] it was 99%; in experiment [4], 100%; in experiment [5], 87%; in experiment [6], 82%. For the same compound, the Activity in [7] came out at 91%; in [8] it was 91%; in [9] it was 73%; in experiment [10] it was 89%; in experiment [11], 100%; in [12], 70%. Besides, the Activity in [13] came to 100%; in [14], 90%; in experiment [15] it was 91%; in [16], 100%.
